From article PMC9909341, “TLQP-21 is a low potency partial C3aR activator on human primary macrophages” (Frontiers in Immunology, 2023)

Tests used:
[1] = target: T1, human C3aR (Homo sapiens, UniProt Q16581); assay: phospho-ERK1/2 assay in CHO-C3aR cells; type: cell-based; conditions: n = 3-4; for EC50: CHO cells stably expressing human C3aR, serum-starved, AlphaLISA p-ERK1/2, combined data, read-out: EC50 (pERK1/2), CHO-C3aR
T1 sequence (Q16581 1-482): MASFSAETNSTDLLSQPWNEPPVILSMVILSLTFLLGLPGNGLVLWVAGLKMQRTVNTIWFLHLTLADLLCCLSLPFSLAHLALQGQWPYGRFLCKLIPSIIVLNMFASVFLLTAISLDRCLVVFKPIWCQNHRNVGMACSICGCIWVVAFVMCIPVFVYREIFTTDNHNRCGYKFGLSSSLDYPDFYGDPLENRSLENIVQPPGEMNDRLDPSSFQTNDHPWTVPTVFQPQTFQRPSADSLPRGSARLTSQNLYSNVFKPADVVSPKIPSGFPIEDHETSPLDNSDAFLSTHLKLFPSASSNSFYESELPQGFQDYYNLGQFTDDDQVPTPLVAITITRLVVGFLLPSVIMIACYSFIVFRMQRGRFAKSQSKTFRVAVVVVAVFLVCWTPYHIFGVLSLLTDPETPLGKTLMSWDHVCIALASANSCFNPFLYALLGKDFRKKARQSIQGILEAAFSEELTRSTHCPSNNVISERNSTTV
Protocol: (§1) Cell lines for this study were cultured as previously described ([20]). Non-transfected CHO-K1 cells or CHO cells stably expressing the human C3aR (CHO-C3aR; Product # ES-730-C, PerkinElmer, Melbourne, Australia) were maintained in Ham’s F12 medium containing 10% foetal bovine serum (FBS), 100 IU/ml penicillin and 100 μg/ml streptomycin, with additional 400 μg/ml G418 (In vivoGen, San Diego, USA) added for CHO-C3aR cell culture. HEK293 cells were maintained in DMEM medium containing 10% FBS, 100 IU/ml penicillin and 100 μg/ml streptomycin. All cell lines were maintained in T175 flasks (37°C, 5% CO2) and subcultured at 80-90% confluency using 0.05% trypsin-EDTA in DPBS.
(§2) Ligand-induced ERK1/2 phosphorylation was assessed using the AlphaLISA Surefire Ultra p-ERK1/2 (Thr202/Tyr204) kit (PerkinElmer, Melbourne, Australia) following the manufacturer’s protocol as previously described ([18], [20], [22]). Briefly, CHO-K1, CHO-C3aR, CHO-C5aR1, HMDMs (50,000/well) or BMDMs (90,000/well) were seeded in tissue culture-treated 96-well plates (Corning, Corning, USA) for 24 h and serum-starved overnight. All ligand dilutions were prepared in serum-free medium (SFM) containing 0.1% BSA. For inhibition assays, cells were pre-treated with the following ligands (5 µM SB290157, or respective concentrations of hC3a, mC3a, hC5a, hTLQP-21, and mTLQP-21) or the solvent-only control for 30 min before agonist (hC3a, hTLQP-21 and mTLQP-21) addition. The concentration and identity of the ligands are described in detail in the figure legends. For stimulation, cells were treated with ligands at the indicated concentrations for 10 min at RT and then immediately lysed using AlphaLISA lysis buffer on a microplate shaker (450 rpm, 10 min). For the detection of phospho-ERK1/2 content, cell lysate (5 μL/well) was transferred to a 384-well ProxiPlate (PerkinElmer, Melbourne, Australia) and added to the donor and acceptor reaction mix (2.5 μL/well, respectively), followed by a 2-h incubation at RT in the dark. On a Tecan Spark 20M (Tecan, Männedorf, Switzerland), the plate was measured using standard AlphaLISA settings.
(§3) All experiments were conducted in triplicates and repeated on three separate occasions unless otherwise specified. Data was analysed using GraphPad software (Prism 9.1). Data from each individual repeat was normalised accordingly (as specified in the figure legends) before being combined and expressed as mean ± standard error of the mean (S.E.M.) unless otherwise described. For all dose-response studies, logarithmic concentration-response curves were plotted using combined data and analysed to determine the respective potency values. Statistical analysis was performed using two-way ANOVA with Dunnett’s post hoc analysis. Donor-matched comparisons were made for HMDM experiments. Differences were deemed significant when p < 0.05.
Figure 1 hTLQP-2 and mTLQP-21 activate ERK signalling in CHO-K1 and CHO-C3aR cells. hTLQP-21, mTLQP-21 and plasma-derived human C3a were tested in (A) non-transfected CHO-K1 or (B) CHO cells stably expressing human C3aR. CHO cells were serum-starved overnight and then stimulated with various ligands for 10 min before being lysed. The phospho-ERK1/2 content in the lysate was measured and expressed as fold-baseline before being combined. The maximum relative pERK1/2 activity induced by each ligand is shown in (C). Data represent mean ± S.E.M. of triplicate measurements from 3-4 independent experiments (n = 3-4). Two-way ANOVA with Dunnett’s post hoc analysis. *P < 0.05, ***P < 0.001, ****P < 0.0001. Ligand treated versus medium treated cells for each cell line.

[2] = system: HMDM (endogenous human C3aR); type: cell-based; conditions: for EC50: primary human macrophages, 50,000/well, AlphaLISA p-ERK1/2, n = 4 donors, read-out: EC50 (pERK1/2), HMDM
From the text: HMDMs were generated and cultured as previously described ([20]), with experiments approved by The University of Queensland Human Research Ethics Committee. Briefly, human buffy coat blood from anonymous healthy donors was obtained through the Australian Red Cross Blood Service (Brisbane, Australia). Human CD14+ monocytes were isolated from blood using Lymphoprep density centrifugation (STEMCELL, Melbourne, Australia) followed by CD14+ MACS magnetic bead separation (Miltenyi Biotec, Sydney, Australia). The isolated monocytes were differentiated for 7 days in Iscove’s Modified Dulbecco’s Medium supplemented with 10% FBS, 100 IU/ml penicillin, 100 μg/ml streptomycin and 15 ng/ml recombinant human macrophage colony stimulating factor (BioLegend, San Diego, USA) on 10 mm square dishes (Bio-strategy, Brisbane, Australia). Non-adherent cells were removed by washing with DPBS, and the adherent differentiated HMDMs were harvested by gentle scraping.
as §2, §3
Figure 3 Agonistic and antagonistic activities of hTLQP-21 and mTLQP-21 in human monocyte-derived macrophages. Serum-starved HMDMs (50,000/well) were (A) stimulated with medium or respective ligands at the indicated concentrations for 10 min and then lysed, or (B) pre-treated with 5 µM SB290157 for 30 min prior to stimulation. (C) HMDMs were pre-treated with 10 μM hTLQP-21 or mTLQP-21 for 30 min before being stimulated with respective concentrations of human C3a. (D) HMDMs were pre-treated with 10 nM hC3a, 10 μM hTLQP-21 or mTLQP-21 for 30 min before being stimulated with the same concentrations of the above ligands for 10 min and then lysed. (E) HMDMs were pre-treated with 10 μM hTLQP-21 or mTLQP-21 for 30 min before being stimulated with respective concentrations of human C5a for 10 min and then lysed. […]

[3] = system: CHO-K1 cells (endogenous C3aR); assay: phospho-ERK1/2 assay in non-transfected CHO-K1 cells; type: cell-based, Chinese hamster
Protocol: as §1
Ligand-induced ERK1/2 phosphorylation was assessed using the AlphaLISA Surefire Ultra p-ERK1/2 (Thr202/Tyr204) kit (PerkinElmer, Melbourne, Australia) following the manufacturer’s protocol as previously described ([18], [20], [22]). Briefly, CHO-K1, CHO-C3aR, CHO-C5aR1, HMDMs (50,000/well) or BMDMs (90,000/well) were seeded in tissue culture-treated 96-well plates (Corning, Corning, USA) for 24 h and serum-starved overnight. […] On a Tecan Spark 20M (Tecan, Männedorf, Switzerland), the plate was measured using standard AlphaLISA settings.
as §3, with “Statistical analysis was performed using two-way ANOVA with Dunnett’s post hoc analysis. Donor-matched comparisons were made for HMDM experiments. Differences were deemed significant when p < 0.05.” left out
Figure 1 hTLQP-2 and mTLQP-21 activate ERK signalling in CHO-K1 and CHO-C3aR cells. hTLQP-21, mTLQP-21 and plasma-derived human C3a were tested in (A) non-transfected CHO-K1 or (B) CHO cells stably expressing human C3aR. […] The phospho-ERK1/2 content in the lysate was measured and expressed as fold-baseline before being combined. […]

Substance | EC50 ([1]; 10 min stimulation at RT) | EC50 ([2]; 10 min stimulation at RT) | ERK1/2 phosphorylation, CHO-K1 ([3]; 10 min stimulation at RT, n = 3-4) | maximum relative pERK1/2 activity, CHO-C3aR ([1]; 10 min, Figure 1C) | logEC50 ± SE (pERK1/2), CHO-C3aR ([1]; CHO-C3aR, 10 min stimulation at RT) | % C3a activity ± SE, CHO-C3aR ([1]; efficacy relative to hC3a, fold baseline normalised) | logEC50 ± SE (pERK1/2), HMDM ([2]; HMDM, 10 min stimulation at RT, n = 3-4) | % C3a activity ± SE, HMDM ([2]; relative to hC3a, n = 3-4) | maximum relative pERK1/2 activity, CHO-K1 ([3]; 10 min, Figure 1C, n = 3-4) | relative efficacy of ERK signalling in CHO-K1 versus CHO-C3aR ([3]; fold lower than in CHO-C3aR cells)
hC3a: purified (plasma-derived) human C3a, purchased from Merck | 0.15 nM | 0.11 nM | significantly triggered ERK1/2 phosphorylation in CHO-K1 cells | – | – | – | – | – | – | –
C3a: Table 1 label: human C3a in CHO-C3aR and HMDM, recombinant mouse C3a in BMDM | 0.15 nM | 0.11 nM | – | 7.3 fold baseline | -9.8 ± 0.1 | 100 ± 2.8% | -9.9 ± 0.1 | 100 ± 6.2% | 2.7 fold baseline | 2.6 fold
